In PubChem BioAssay (NCI):
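At the GI50, growth is halved. TGI denotes the concentration required for complete inhibition of growth.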

What was measured:
Assay in all cases: NCI anticancer screen, dose series, 384-well format
[1] = system: OVCAR-3 ovarian
[2] = system: HCC-2998 colon
[3] = system: NCI-H460 NSCLC
[4] = system: T-47D breast
[5] = system: SF-295 CNS
[6] = system: SK-MEL-28 melanoma
[7] = system: M14 melanoma
[8] = system: COLO 205 colon
[9] = system: SN12C renal
[10] = system: HT29 colon
[11] = system: SF-539 CNS
[12] = system: SK-OV-3 ovarian
[13] = system: DU-145 prostate
[14] = system: LOX IMVI melanoma
[15] = system: UACC-62 melanoma
[16] = system: RXF 393 renal
[17] = system: NCI-H226 lung
[18] = system: U251 glioblastoma
[19] = system: UACC-257 melanoma
[20] = system: EKVX NSCLC
[21] = system: HOP-92 NSCLC
[22] = system: RPMI-8226 leukemia
[23] = system: SNB-19 CNS
[24] = system: HCT-116 colon
[25] = system: OVCAR-8 ovarian
[26] = system: CCRF-CEM leukemia
[27] = system: KM12 colon
[28] = system: OVCAR-5 ovarian
[29] = system: SW-620 colon
[30] = system: UO-31 renal
[31] = system: A549 NSCLC
[32] = system: MALME-3M melanoma
[33] = system: SR leukemia
[34] = system: 786-0 renal
[35] = system: SK-MEL-2 melanoma
[36] = system: PC-3 prostate
[37] = system: IGROV1 ovarian
[38] = system: ACHN renal
[39] = system: HCT-15 colon
[40] = system: MDA-MB-231 breast
[41] = system: HL-60(TB) leukemia
[42] = system: SF-268 CNS
[43] = system: A498 renal
[44] = system: HOP-62 NSCLC
[45] = system: K-562 leukemia
[46] = system: HS 578T breast
[47] = system: MDA-MB-468 breast

Question: What does the source list for `C[C@]12CCCN1CC1=NNC(=O)c3cc(F)cc4[nH]c2c1c34`?
Answer: GI50 [1]: 14 µM; TGI [1]: 39.9 µM; GI50 [2]: 9.2 µM; TGI [2]: 27.5 µM; GI50 [3]: 4.64 µM; TGI [3]: 20.6 µM; GI50 [4]: 31.7 µM; TGI [4]: > 86.3 µM; GI50 [5]: 10.7 µM; TGI [5]: 51.9 µM; GI50 [6]: 26.1 µM; TGI [6]: 81.3 µM; GI50 [7]: 18.3 µM; TGI [7]: 43.4 µM; GI50 [8]: 17.8 µM; TGI [8]: 45.1 µM; GI50 [9]: 13.1 µM; TGI [9]: 35 µM; GI50 [10]: 22.8 µM; TGI [10]: 74.7 µM; GI50 [11]: 14.2 µM; TGI [11]: 33.9 µM; GI50 [12]: 35.5 µM; TGI [12]: > 100 µM; GI50 [13]: 27.9 µM; TGI [13]: 80 µM; GI50 [14]: 16.3 µM; TGI [14]: 60.4 µM; GI50 [15]: 11.7 µM; TGI [15]: 28.1 µM; GI50 [16]: 12.8 µM; TGI [16]: 30.9 µM; GI50 [17]: 14.8 µM; TGI [17]: 50.2 µM; GI50 [18]: 13.6 µM; TGI [18]: > 79.2 µM; GI50 [19]: 37.2 µM; TGI [19]: > 92.2 µM; GI50 [20]: 20.2 µM; TGI [20]: 51.6 µM; GI50 [21]: 18.4 µM; TGI [21]: > 60.9 µM; GI50 [22]: 10.5 µM; TGI [22]: 22.9 µM; GI50 [23]: 35.2 µM; TGI [23]: 97.7 µM; GI50 [24]: 9 µM; TGI [24]: 43.3 µM; GI50 [25]: 13 µM; TGI [25]: 35.7 µM; GI50 [26]: 14.4 µM; TGI [26]: 27.8 µM; GI50 [27]: 13.2 µM; TGI [27]: 42.3 µM; GI50 [28]: 17.9 µM; TGI [28]: 44.5 µM; GI50 [29]: 7.57 µM; TGI [29]: > 39.2 µM; GI50 [30]: 27.5 µM; TGI [30]: 96.1 µM; GI50 [31]: 29.1 µM; TGI [31]: > 100 µM; GI50 [32]: 34.4 µM; TGI [32]: 83.6 µM; GI50 [33]: 1.27 µM; TGI [33]: 2.58 µM; GI50 [34]: 29 µM; TGI [34]: > 80.9 µM; GI50 [35]: 20.4 µM; TGI [35]: 41.6 µM; GI50 [36]: 20 µM; TGI [36]: > 80.7 µM; GI50 [37]: 21.7 µM; TGI [37]: > 89.6 µM; GI50 [38]: 24 µM; TGI [38]: > 76.2 µM; GI50 [39]: 32 µM; TGI [39]: > 95.3 µM; GI50 [40]: 13.6 µM; TGI [40]: 60.1 µM; GI50 [41]: 15.6 µM; TGI [41]: 29.1 µM; GI50 [42]: 14.5 µM; TGI [42]: 31.6 µM; GI50 [43]: 18.4 µM; TGI [43]: 49 µM; GI50 [44]: 10.9 µM; TGI [44]: 45.6 µM; GI50 [45]: 38.6 µM; TGI [45]: > 100 µM; GI50 [46]: 13.6 µM; TGI [46]: 30.1 µM; GI50 [47]: 3.57 µM; TGI [47]: 18.8 µM
